For this test, the target named is T1, ELIC (Dickeya chrysanthemi, UniProt P0C7B7).
T1 sequence (P0C7B7 1-321): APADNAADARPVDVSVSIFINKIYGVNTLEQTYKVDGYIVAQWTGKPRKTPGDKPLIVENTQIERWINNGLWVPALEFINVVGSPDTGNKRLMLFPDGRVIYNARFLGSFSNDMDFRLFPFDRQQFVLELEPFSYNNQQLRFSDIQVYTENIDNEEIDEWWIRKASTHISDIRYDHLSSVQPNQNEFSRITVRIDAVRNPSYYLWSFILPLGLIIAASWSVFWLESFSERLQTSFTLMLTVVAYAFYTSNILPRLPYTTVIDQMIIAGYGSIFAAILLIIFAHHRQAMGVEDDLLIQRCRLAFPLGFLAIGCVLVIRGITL
Briefly: two-electrode voltage clamp in Xenopus oocytes; outside-out patch clamp of HEK-293T cells. Format: cell-based.

The structures appear in SMILES notation.

Turning to `NCCS` [CA, cysteamine], a half-maximal effect (EC50) was put at 10 ± 0.1 mM.

The values are drawn from paper PMC3833957, “Macroscopic Kinetics of Pentameric Ligand Gated Ion Channels: Comparisons between Two Prokaryotic Channels and One Eukaryotic Channel” (PLoS ONE, 2013).
